Results: patent US7417156B2, “Orally active, antimalarial, anticancer, artemisinin-derived trioxane dimers” (Johns Hopkins University, priority 2002, dated 2008)

Assays:
[1] = system: K-562; experiment: NCI 60 cell line panel screen (SRB); format: cell-based, human
[2] = system: MOLT-4
Method: Growth Inhibition. […] The screening assay is performed on 96-well microtitre plates. Relatively high initial inoculation densities are used, in order to permit measurement of “time-zero” values and to enhance the screen's ability to detect and provide some differentiation between growth inhibition and cytotoxic response parameters. […] The inoculated microtitre plates are pre-incubated for 24 hours at 37° C. prior to drug additions. The five drug dilutions tested routinely range from 10^−4 to 10^−8 molar. Higher or lower concentration ranges may be selected on a non-routine basis if appropriate solubility and/or prior biological information or other screening data so dictate. Duplicate wells are prepared for all concentrations, (concentration is often denoted by placing brackets around a number); “time-zero” and “no drug” controls are also provided for each test. The minimum amount of compound required for a one-time evaluation in the routine screen can be calculated from the knowledge that each test requires a total of approximately 40 ml (0.04 liter) of cell culture medium containing the highest desired drug concentration. […] After a 48 hour incubation (37° C.) with the test compound, the cells are fixed in situ to the bottoms of the microtitre wells by addition of 50 μl of either 50% trichloroacetic acid (for adherent cell lines) or 80% trichloroacetic acid (for settled cell suspension lines), followed by incubation for 60 minutes at 4° C. The cellular protein in each well is assayed using a sulforhodamine B (SRB) stain procedure. Briefly, after discarding the supernatants, the microtitre plates are washed 5 times with deionized water and air-dried. […] Unbound SRB is removed by washing 5 times with 1% acetic acid. […] SRB is a bright pink anionic dye which, in dilute acetic acid, binds electrostatically to the basic amino acids of TCA-fixed cells. Cryopreserved master stocks of all the lines are maintained, and cultures used for screening are replaced from the master stock after no more than twenty passages in the screening laboratory. The cell line panel consists of 60 lines, organized into nine, disease-related subpanels including leukemia, non-small-cell lung cancer, colon, CNS, melanoma, ovarian, renal, prostate and breast cancers.
At this value the increase from time tzero, in the number or mass of cells in the test well is only 50% as much as the corresponding increase in the control well during this period of the experiment, see Table III. A drug effect of this intensity is interpreted as primary growth inhibition.
At this value the number or mass of cells in the well at the end of the experiment equals the number or mass of cells in the well at time tzero, see Table IV. A drug effect of this intensity is regarded as cytostasis.
At this value, the number or mass of cells in the test well at the end of the experiment is half that at time tzero, see Table V. This is interpreted as cytotoxicity.
Dose response curves, shown in the above mentioned Figures, are obtained by exposing various cancer cell lines to compounds having a known concentration ([log10M]), as discussed in detail above, and then plotting the percentage growth of each cell line for each concentration. […] Percentage growth is determined by dividing the number or mass of cells in the test well by the number or mass of cells in a control well. […] As discussed previously, the five drug dilutions routinely tested range from 10^−4 to […].

[3] = system: RPMI-8226; experiment: NCI 60 cell line panel screen (SRB); format: cell-based, human
[4] = system: HOP-62; experiment: NCI 60 cell line panel screen (SRB); format: cell-based, human
[5] = system: NCI-H23; experiment: NCI 60 cell line panel screen (SRB); format: cell-based, human
[6] = system: SNB-75; experiment: NCI 60 cell line panel screen (SRB); format: cell-based, human
[7] = system: SK-MEL-2; experiment: NCI 60 cell line panel screen (SRB); format: cell-based, human
[8] = system: SK-MEL-28; experiment: NCI 60 cell line panel screen (SRB); format: cell-based, human
[9] = system: UACC-257; experiment: NCI 60 cell line panel screen (SRB); format: cell-based, human
[10] = system: OVCAR-8; experiment: NCI 60 cell line panel screen (SRB); format: cell-based, human
[11] = system: RXF 393; experiment: NCI 60 cell line panel screen (SRB); format: cell-based, human
[12] = system: PC-3; experiment: NCI 60 cell line panel screen (SRB); format: cell-based, human
[13] = system: MDA-MB231/ATCC; experiment: NCI 60 cell line panel screen (SRB); format: cell-based, human
[14] = system: BT-549; experiment: NCI 60 cell line panel screen (SRB); format: cell-based, human

`C[C@@H]1CC[C@H]2[C@@H](C)C(=O)O[C@@H]3O[C@]4(C)CC[C@@H]1[C@]32OO4` [Artemisinin] was tested, and the Log10LC50 ([1]; K-562 (Leukemia), LC50: PG=−50) was >−4.00 log10M, the Log10TGI50 ([1]; K-562 (Leukemia), TGI: PG=0) was >−4.00 log10M and the Log10GI50 ([1]; Leukemia, K-562) was −4.33. The Log10GI50 ([2]; Leukemia, MOLT-4) was −4.73, the Log10LC50 ([2]; MOLT-4 (Leukemia), LC50: PG=−50) was >−4.00 log10M and the Log10TGI50 ([2]; MOLT-4 (Leukemia), TGI: PG=0) was >−4.00 log10M. The “concentration for cytotoxicity (percentage growth −50)” value ([2]; human, 48 h) was “greater than 10^−4 M”, the Log10GI50 ([3]; Leukemia, RPMI-8226) was >−4.00 and the Log10LC50 ([3]; RPMI-8226 (Leukemia), LC50: PG=−50) was >−4.00 log10M. The Log10TGI50 ([3]; RPMI-8226 (Leukemia), TGI: PG=0) was >−4.00 log10M, the Log10LC50 ([4]; HOP-62 (Non-Small Cell Lung Cancer), LC50: PG=−50) was >−4.00 log10M and the Log10TGI50 ([4]; HOP-62 (Non-Small Cell Lung Cancer), TGI: PG=0) was >−4.00 log10M. The Log10GI50 ([4]; Non-Small Cell Lung Cancer, HOP-62) was >−4.00, the Log10LC50 ([5]; NCI-H23 (Non-Small Cell Lung Cancer), LC50: PG=−50) was >−4.00 log10M and the Log10TGI50 ([5]; NCI-H23 (Non-Small Cell Lung Cancer), TGI: PG=0) was >−4.00 log10M. For the same compound, the Log10GI50 ([5]; Non-Small Cell Lung Cancer, NCI-H23) was >−4.00, the Log10GI50 ([6]; CNS Cancer, SNB-75) was >−4.00 and the Log10LC50 ([6]; SNB-75 (CNS Cancer), LC50: PG=−50) was >−4.00 log10M. For the same compound, the Log10TGI50 ([6]; SNB-75 (CNS Cancer), TGI: PG=0) was >−4.00 log10M, the Log10LC50 ([7]; SK-MEL2 (Melanoma), LC50: PG=−50) was >−4.00 log10M and the Log10TGI50 ([7]; SK-MEL-2 (Melanoma), TGI: PG=0) was >−4.00 log10M. The Log10GI50 ([8]; Melanoma, SK-MEL-28) was >−4.00, the Log10LC50 ([8]; SK-MEL-28 (Melanoma), LC50: PG=−50) was >−4.00 log10M and the Log10TGI50 ([8]; SK-MEL-28 (Melanoma), TGI: PG=0) was >−4.00 log10M. For the same compound, the Log10GI50 ([9]; Melanoma, UACC-257) was >−4.00, the Log10LC50 ([9]; UACC-257 (Melanoma), LC50: PG=−50) was >−4.00 log10M and the Log10TGI50 ([9]; UACC-257 (Melanoma), TGI: PG=0) was >−4.00 log10M. For the same compound, the Log10LC50 ([10]; OVCAR-8 (Ovarian Cancer), LC50: PG=−50) was >−4.00 log10M, the Log10TGI50 ([10]; OVCAR-8 (Ovarian Cancer), TGI: PG=0) was >−4.00 log10M and the Log10GI50 ([10]; Ovarian Cancer, OVCAR-8) was >−4.00. The Log10LC50 ([11]; RXF 393 (Renal Cancer), LC50: PG=−50) was >−4.00 log10M, the Log10TGI50 ([11]; RXF 393 (Renal Cancer), TGI: PG=0) was >−4.00 log10M and the Log10GI50 ([11]; Renal Cancer, RXF 393) was −4.08. The Log10LC50 ([12]; PC-3 (Prostate Cancer), LC50: PG=−50) was >−4.00 log10M, the Log10TGI50 ([12]; PC-3 (Prostate Cancer), TGI: PG=0) was −4.00 log10M and the Log10GI50 ([12]; Prostate Cancer, PC-3) was −4.17. The Log10GI50 ([13]; Breast Cancer, MDA-MB231/ATCC) was −4.20, the Log10LC50 ([13]; MDA-MB231/ATCC (Breast Cancer), LC50: PG=−50) was >−4.00 log10M and the Log10TGI50 ([13]; MDA-MB231/ATCC (Breast Cancer), TGI: PG=0) was >−4.00 log10M. For the same compound, the Log10LC50 ([14]; BT-549 (Breast Cancer), LC50: PG=−50) was >−4.00 log10M, the Log10TGI50 ([14]; BT-549 (Breast Cancer), TGI: PG=0) was >−4.00 log10M and the Log10GI50 ([14]; Breast Cancer, BT-549) was −4.06.
